From patent publication US20220281848A1, “PYRAZOLE-SUBSTITUTED PYRROLIDINONES AS HERBICIDES” (FMC Corporation, priority 2019, published 2022)

Tested on: plants
Assay: Test D pre-emergence, other plants of Tables D1 and D3
Type: in vivo
Conditions: preemergent, 20 DAA
Method in brief: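 Seeds treated with herbicide safener; sown in soil; glasshouse, 16 h light, 65% humidity. Sprayed day 1 (pre) or ~day 12 (post). Spray in 0.2% v/v adjuvant. Scored 0–100 damage: 20 DAA pre, 15 d post.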

## CN1CC(c2cc(C(F)(F)F)n(C)n2)C(C(=O)Nc2ccccc2F)C1=O (racemic) [Compound 9]
Rate 15
  damage to plant (100=total damage to plant; 0=no damage to plant), ABUTH: 0
  damage to plant (100=total damage to plant; 0=no damage to plant), AMARE: 0
  damage to plant (100=total damage to plant; 0=no damage to plant), BIDPI: 0
  damage to plant (100=total damage to plant; 0=no damage to plant), BRAPL: 0
  damage to plant (100=total damage to plant; 0=no damage to plant), CYPES: 0
  damage to plant (100=total damage to plant; 0=no damage to plant), DIGSA: 0
  damage to plant (100=total damage to plant; 0=no damage to plant), ECHCG: 0
  damage to plant (100=total damage to plant; 0=no damage to plant), ELEIN: 0
  damage to plant (100=total damage to plant; 0=no damage to plant), EPHHL: 0
  damage to plant (100=total damage to plant; 0=no damage to plant), GLXMA: 0
  damage to plant (100=total damage to plant; 0=no damage to plant), IPOHE: 0
  damage to plant (100=total damage to plant; 0=no damage to plant), ORYSA: 0
  damage to plant (100=total damage to plant; 0=no damage to plant), PANMI: 0
  damage to plant (100=total damage to plant; 0=no damage to plant), SETFA: 0
  damage to plant (100=total damage to plant; 0=no damage to plant), SIDSP: 0
  damage to plant (100=total damage to plant; 0=no damage to plant), SORVU: 0
Rate 30
  damage to plant (100=total damage to plant; 0=no damage to plant), ABUTH: 0
  damage to plant (100=total damage to plant; 0=no damage to plant), AMARE: 0
  damage to plant (100=total damage to plant; 0=no damage to plant), BIDPI: 0
  damage to plant (100=total damage to plant; 0=no damage to plant), BRAPL: 10
  damage to plant (100=total damage to plant; 0=no damage to plant), CYPES: 0
  damage to plant (100=total damage to plant; 0=no damage to plant), DIGSA: 80
  damage to plant (100=total damage to plant; 0=no damage to plant), ECHCG: 20
  damage to plant (100=total damage to plant; 0=no damage to plant), ELEIN: 0
  damage to plant (100=total damage to plant; 0=no damage to plant), EPHHL: 0
  damage to plant (100=total damage to plant; 0=no damage to plant), GLXMA: 0
  damage to plant (100=total damage to plant; 0=no damage to plant), IPOHE: 0
  damage to plant (100=total damage to plant; 0=no damage to plant), ORYSA: 0
  damage to plant (100=total damage to plant; 0=no damage to plant), PANMI: 0
  damage to plant (100=total damage to plant; 0=no damage to plant), SETFA: 0
  damage to plant (100=total damage to plant; 0=no damage to plant), SIDSP: 0
  damage to plant (100=total damage to plant; 0=no damage to plant), SORVU: 0
Rate 60
  damage to plant (100=total damage to plant; 0=no damage to plant), ABUTH: 0
  damage to plant (100=total damage to plant; 0=no damage to plant), BIDPI: 0
  damage to plant (100=total damage to plant; 0=no damage to plant), BRAPL: 30
  damage to plant (100=total damage to plant; 0=no damage to plant), CYPES: 0
  damage to plant (100=total damage to plant; 0=no damage to plant), DIGSA: 80
  damage to plant (100=total damage to plant; 0=no damage to plant), ECHCG: 80
  damage to plant (100=total damage to plant; 0=no damage to plant), ELEIN: 0
  damage to plant (100=total damage to plant; 0=no damage to plant), EPHHL: 0
  damage to plant (100=total damage to plant; 0=no damage to plant), GLXMA: 0
  damage to plant (100=total damage to plant; 0=no damage to plant), IPOHE: 0
  damage to plant (100=total damage to plant; 0=no damage to plant), ORYSA: 0
  damage to plant (100=total damage to plant; 0=no damage to plant), PANMI: 0
  damage to plant (100=total damage to plant; 0=no damage to plant), SETFA: 0
  damage to plant (100=total damage to plant; 0=no damage to plant), SIDSP: 0
  damage to plant (100=total damage to plant; 0=no damage to plant), SORVU: 0
Rate 130
  damage to plant (100=total damage to plant; 0=no damage to plant), ABUTH: 0
  damage to plant (100=total damage to plant; 0=no damage to plant), BIDPI: 0
  damage to plant (100=total damage to plant; 0=no damage to plant), BRAPL: 90
  damage to plant (100=total damage to plant; 0=no damage to plant), CYPES: 0
  damage to plant (100=total damage to plant; 0=no damage to plant), DIGSA: 100
  damage to plant (100=total damage to plant; 0=no damage to plant), ECHCG: 90
  damage to plant (100=total damage to plant; 0=no damage to plant), ELEIN: 0
  damage to plant (100=total damage to plant; 0=no damage to plant), EPHHL: 0
  damage to plant (100=total damage to plant; 0=no damage to plant), GLXMA: 0
  damage to plant (100=total damage to plant; 0=no damage to plant), IPOHE: 0
  damage to plant (100=total damage to plant; 0=no damage to plant), ORYSA: 0
  damage to plant (100=total damage to plant; 0=no damage to plant), PANMI: 0
  damage to plant (100=total damage to plant; 0=no damage to plant), SETFA: 50
  damage to plant (100=total damage to plant; 0=no damage to plant), SIDSP: 0
  damage to plant (100=total damage to plant; 0=no damage to plant), SORVU: 0
Rate 250
  damage to plant (100=total damage to plant; 0=no damage to plant), ABUTH: 10
  damage to plant (100=total damage to plant; 0=no damage to plant), BIDPI: 0
  damage to plant (100=total damage to plant; 0=no damage to plant), BRAPL: 100
  damage to plant (100=total damage to plant; 0=no damage to plant), CYPES: 0
  damage to plant (100=total damage to plant; 0=no damage to plant), DIGSA: 90
  damage to plant (100=total damage to plant; 0=no damage to plant), ECHCG: 90
  damage to plant (100=total damage to plant; 0=no damage to plant), ELEIN: 0
  damage to plant (100=total damage to plant; 0=no damage to plant), GLXMA: 0
  damage to plant (100=total damage to plant; 0=no damage to plant), IPOHE: 0
  damage to plant (100=total damage to plant; 0=no damage to plant), ORYSA: 0
  damage to plant (100=total damage to plant; 0=no damage to plant), PANMI: 0
  damage to plant (100=total damage to plant; 0=no damage to plant), SETFA: 70
  damage to plant (100=total damage to plant; 0=no damage to plant), SIDSP: 0
  damage to plant (100=total damage to plant; 0=no damage to plant), SORVU: 0
Rate 500
  damage to plant (100=total damage to plant; 0=no damage to plant), ABUTH: 10
  damage to plant (100=total damage to plant; 0=no damage to plant), AMARE: 0
  damage to plant (100=total damage to plant; 0=no damage to plant), BIDPI: 0
  damage to plant (100=total damage to plant; 0=no damage to plant), BRAPL: 100
  damage to plant (100=total damage to plant; 0=no damage to plant), CYPES: 0
  damage to plant (100=total damage to plant; 0=no damage to plant), DIGSA: 100
  damage to plant (100=total damage to plant; 0=no damage to plant), ECHCG: 90
  damage to plant (100=total damage to plant; 0=no damage to plant), ELEIN: 0
  damage to plant (100=total damage to plant; 0=no damage to plant), EPHHL: 10
  damage to plant (100=total damage to plant; 0=no damage to plant), GLXMA: 0
  damage to plant (100=total damage to plant; 0=no damage to plant), IPOHE: 0
  damage to plant (100=total damage to plant; 0=no damage to plant), ORYSA: 0
  damage to plant (100=total damage to plant; 0=no damage to plant), PANMI: 0
  damage to plant (100=total damage to plant; 0=no damage to plant), SETFA: 90
  damage to plant (100=total damage to plant; 0=no damage to plant), SIDSP: 0
